15 compounds from US8865744B1, “(Cyano-dimethyl-methyl)-isoxazoles and -[1,3,4]thiadiazoles” (Boehringer Ingelheim International GmbH, priority 2013, dated 2014) can be followed below.

Usually EC50 stands for the concentration that produces a half-maximal response.

Where two headings read alike, the source gives them in different places.

The target in one assay is T1, human CB1R (Homo sapiens, UniProt P21554).
T1 construct: host or cells: CHO cells
As to the kind of experiment: CB1 cAMP (Assay 2): In vitro testing of CB1 potency. The class given is cell-based.

Another assay concerns the target T2, human CB2R (Homo sapiens, UniProt P34972).
T2 construct: host or cells: CHO cells
The assay can be described thus: CB2 cAMP (Assay 1): In vitro testing of CB2 potency. The class given is cell-based.

T1 sequence (P21554 whole entry): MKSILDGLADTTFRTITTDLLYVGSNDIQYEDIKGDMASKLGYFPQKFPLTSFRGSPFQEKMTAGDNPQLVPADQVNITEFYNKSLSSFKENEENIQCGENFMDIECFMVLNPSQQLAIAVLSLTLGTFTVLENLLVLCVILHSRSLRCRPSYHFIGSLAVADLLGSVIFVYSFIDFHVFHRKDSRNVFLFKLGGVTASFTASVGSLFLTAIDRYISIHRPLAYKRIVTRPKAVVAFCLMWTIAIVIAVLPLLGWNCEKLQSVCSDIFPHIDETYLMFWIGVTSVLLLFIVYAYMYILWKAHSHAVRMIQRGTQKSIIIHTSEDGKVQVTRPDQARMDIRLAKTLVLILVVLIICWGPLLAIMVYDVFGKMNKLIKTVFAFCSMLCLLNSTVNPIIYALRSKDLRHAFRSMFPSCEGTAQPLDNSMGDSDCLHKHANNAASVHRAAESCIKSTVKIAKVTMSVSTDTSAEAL
T2 sequence (P34972 whole entry): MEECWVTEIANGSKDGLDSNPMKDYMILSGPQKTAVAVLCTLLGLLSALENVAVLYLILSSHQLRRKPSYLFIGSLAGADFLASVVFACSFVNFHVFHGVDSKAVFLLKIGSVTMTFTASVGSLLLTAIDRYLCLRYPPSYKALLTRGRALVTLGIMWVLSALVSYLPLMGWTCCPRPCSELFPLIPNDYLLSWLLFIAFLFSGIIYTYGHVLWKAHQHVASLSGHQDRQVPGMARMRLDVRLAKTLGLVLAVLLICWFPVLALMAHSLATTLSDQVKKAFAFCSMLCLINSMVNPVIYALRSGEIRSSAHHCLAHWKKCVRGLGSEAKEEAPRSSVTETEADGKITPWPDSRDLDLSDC

Take `CC(C)(CO)c1cc(NC(=O)C(C)(C)S(=O)(=O)C2CCOCC2)on1` [Example 2 in WO2010036630]: the EC50 on human CB1R was 150000 nM.
Regarding `CC(C)(CO)c1cc(NC(=O)C(C)(C)S(=O)(=O)CC2CCOCC2)on1` [Example 1 in WO2010036630], the EC50 at human CB2R (read-out: CB2 EC50) is 88 nM.
For the compound `CC(C)(C#N)c1cc(NC(=O)C(C)(C)S(=O)(=O)CCCC(F)(F)F)on1` [Example 1, N-[3-(Cyano-dimethyl-methyl)-isoxazol-5-yl]-2-methyl-2-(4,4,4-trifluoro-butane-1-sulfonyl)-propionamide], the EC50 is 104000 nM at human CB1R and 18 nM at human CB2R.
Regarding `CN(CC1CCOCC1)C(C)(C)C(=O)Nc1nnc(C(C)(C)CO)s1` [Example 30 in WO2010147792], the half-maximal effective concentration (EC50) on human CB1R (read-out: CB1 EC50) came out at 120000 nM; on human CB2R (read-out: CB2 EC50), 5.4 nM.
Take `COCC(C)(C)c1cc(NC(=O)C(C)(C)N(C)CC2CCOCC2)on1` [Example 46 in WO2010147792]: the 50% effective concentration (EC50) was found to be 923 nM at human CB1R (read-out: CB1 EC50) and 0.27 nM at human CB2R (read-out: CB2 EC50).
Regarding `COCC(C)(C)c1cc(NC(=O)C(C)(C)S(=O)(=O)CC2CCOCC2)on1` [Example 17 in WO2010036630], the EC50 amounted to 8600 nM at human CB1R and 30 nM at human CB2R.
The like results for `CC(C)(O)c1cc(NC(=O)C(C)(C)S(=O)(=O)C2CCOCC2)on1` [Example 133 WO2010036630] were, in that order, > 200000 nM and 140 nM.
With `CN(CC1CCOCC1)C(C)(C)C(=O)Nc1cc(C(C)(C)C#N)no1` [Example 4], the EC50 on human CB1R (read-out: CB1 EC50) was found to be 39400 nM; on human CB2R (read-out: CB2 EC50) it was 0.36 nM.
Take `CC(C)(C#N)c1cc(NC(=O)C(C)(C)S(=O)(=O)CC2CCOCC2)on1` [Example 2, N-[3-(Cyano-dimethyl-methyl)-isoxazol-5-yl]-2-methyl-2-(tetrahydro-pyran-4-ylmethanesulfonyl)-propionamide]: the EC50 is > 200000 nM on human CB1R and 104 nM at human CB2R.
The matching figures for `CN(CC1CCOCC1)C(C)(C)C(=O)Nc1nnc(C(C)(C)C#N)s1` [Example 7, N-[5-(Cyano-dimethyl-methyl)-[1,3,4]thiadiazol-2-yl]-2-methyl-2-[methyl(tetrahydro-pyran-4-ylmethyl)-amino]-propionamide]: > 200000 nM and 25 nM.
As to `CC(C)(C#N)c1cc(NC(=O)C(C)(C)S(=O)(=O)C2CCOCC2)on1` [Example 3], the EC50 at human CB1R (read-out: CB1 EC50) is > 200000 nM; on human CB2R (read-out: CB2 EC50), 8 nM.
The matching figures for `CN(CC1CCOCC1)C(C)(C)C(=O)Nc1cc(C(C)(C)CO)no1` [Example 7 in WO2010147792]: 8080 nM and 0.68 nM.
Regarding `CN(C1CCN(S(C)(=O)=O)CC1)C(C)(C)C(=O)Nc1cc(C(C)(C)CO)no1` [Example 47 in WO2010147792], the EC50 stood at 3100 nM at human CB1R (read-out: CB1 EC50) and 0.85 nM on human CB2R (read-out: CB2 EC50).
With `CN(C1CCN(S(C)(=O)=O)CC1)C(C)(C)C(=O)Nc1nnc(C(C)(C)C#N)s1` [Example 8], the EC50 came out at 69000 nM at human CB1R and 4.3 nM on human CB2R.
Take `CN(C1CCN(S(C)(=O)=O)CC1)C(C)(C)C(=O)Nc1cc(C(C)(C)C#N)no1` [Example 5]: the results for the EC50 at human CB1R (read-out: CB1 EC50) and at human CB2R (read-out: CB2 EC50) were 2500 nM and 0.23 nM, respectively.
